Assay [1] relates to crabgrass, Brazil (Brazilian crabgrass, Digitaria horizontalis). The assay is described as follows: Test F pre-/postemergence: crabgrass, Brazil. In kind it is in vivo. The source says:
(§1) Seeds of plant species selected from corn (Zea mays), soybean (Glycine max), velvetleaf (Abutilon theophrasti), lambsquarters (Chenopodium album), poinsettia, wild (wild poinsettia, Euphorbia heterophylla), pigweed, palmer (palmer pigweed, Amaranthus palmeri), waterhemp (common waterhemp, Amaranthus rudis), surinam grass (Brachiaria decumbens), crabgrass, Brazil (Brazilian crabgrass, Digitaria horizontalis), panicum, fall (fall panicum Panicum dichotomiflorum), crabgrass, large (large crabgrass, Digitaria sanguinalis), foxtail, giant (giant foxtail, Setaria faberii), foxtail, green (green foxtail Setaria viridis), goosegrass (Eleusine indica), ragweed (common ragweed, Ambrosia elatior), barnyardgrass (Echinochloa crus-galli), sandbur (southern sandbur, Cenchrus echinatus), arrowleaf sida (Sida rhombifolia), ryegrass, Italian (Italian ryegrass, Lolium multiflorum), dayflower, VA (Virginia (VA) dayflower, Commelina virginica), field bindweed (Convolvulus arvensis), cocklebur (common cocklebur, Xanthium strumarium), morningglory (Ipomoea coccinea), nightshade (eastern black nightshade, Solanum ptycanthum), kochia (Kochia scoparia), nutsedge, yellow (yellow nutsedge, Cyperus esculentus), johnsongrass (Sorghum halepense), smartweed (ladysthumb smartweed, Polygonum persicaria), and beggarticks (hairy beggarticks, Bidens pilosa), were planted into a silt loam soil and treated preemergence with test chemicals formulated in a non-phytotoxic solvent mixture which included a surfactant. At the same time, plants selected from these crop and weed species and also pigweed (Amaranthus retroflexus), waterhemp_RES1 (ALS/Triazine resistant common waterhemp, Amaranthus rudis) and waterhemp_RES2 (ALS/HPPD resistant common waterhemp, Amaranthus rudis) were planted in pots containing a planting medium comprising spaghnum peat moss, vermiculite, wetting agent and starter nutrients treated with postemergence applications of some of the test chemicals formulated in the same manner. Plants ranged in height from 2 to 18 cm for postemergence treatments (1- to 4-leaf stage).
(§2) Treated plants and controls were maintained in a greenhouse for 14 to 21 days, after which time all species were compared to controls and visually evaluated. Plant response ratings, summarized in Table E, are based on a scale of 0 to 100 where 0 is no effect and 100 is complete control. A dash (-) response means no test result.

The test system of assay [2] is beggarticks (hairy beggarticks, Bidens pilosa). The assay is described as follows: Test F pre-/postemergence: beggarticks. In kind it is in vivo. Put shortly:
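Preemergence treatment of seeds sown in silt loam soil, and postemergence treatment of plants 2–18 cm tall (1- to 4-leaf stage), with compounds in non-phytotoxic solvent plus surfactant. Greenhouse 14–21 days, then visual rating versus controls on 0–100 scale (100 = complete control).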

The test system of assay [3] is arrowleaf sida (Sida rhombifolia). Briefly: Test F pre-/postemergence: arrowleaf sida. The assay is classed as in vivo.
Description: as §1, §2

Assay [4] has as its system Barnyardgrass. The assay is described as follows: Test C postemergence: barnyardgrass. The assay is classed as in vivo, Echinochloa crus-galli. The source says: At the same time, plants selected from these crop and weed species and also barley (winter barley, Hordeum vulgare), canarygrass (Phalaris minor), chickweed (common chickweed, Stellaria media) windgrass (Apera spica-venti) and deadnettle (henbit deadnettle, Lamium amplexicaule) were planted in pots containing Redi-Earth® planting medium (Scotts Company, 14111 Scottslawn Road, Marysville, Ohio 43041) comprising spaghnum peat moss, vermiculite, wetting agent and starter nutrients and treated with postemergence applications of test chemicals formulated in the same manner. Plants ranged in height from 2 to 18 cm (1- to 4-leaf stage) for postemergence treatments.
Treated plants and controls were maintained in a greenhouse for 13 to 15 days, after which time all species were compared to controls and visually evaluated. Plant response ratings, summarized in Table C, are based on a scale of 0 to 100 where 0 is no effect and 100 is complete control. A dash (-) response means no test result.

The test system of assay [5] is foxtail, giant (giant foxtail, Setaria faberii). The assay is described as follows: Test F pre-/postemergence: foxtail, giant. The assay is classed as in vivo. The conditions noted are these: Preemergence.
Description: as §1, §2

The mark [6] stands for this setting: Postemergence, 4 g ai/ha, scale 0 to 100.
[7] abbreviates: Postemergence, 8 g ai/ha, scale 0 to 100.
Setting [8] is: Postemergence, 16 g ai/ha, scale 0 to 100.
[9] abbreviates: Postemergence, 31 g ai/ha, scale 0 to 100.
Where [10] appears, read: Postemergence, 62 g ai/ha, scale 0 to 100.
Setting [11] is: Preemergence, 4 g ai/ha, scale 0 to 100, 0 no effect, 100 complete control.
[12] abbreviates: Preemergence, 8 g ai/ha, scale 0 to 100, 0 no effect, 100 complete control.
Where [13] appears, read: Preemergence, 16 g ai/ha, scale 0 to 100 (0 no effect, 100 complete control).
Setting [14] is: Preemergence, 31 g ai/ha, scale 0 to 100 (0 no effect, 100 complete control).
Where [15] appears, read: Preemergence, 62 g ai/ha, scale 0 to 100.
The mark [16] stands for this setting: 31 g ai/ha, scale 0 to 100 (0 no effect, 100 complete control).
Setting [17] is: 62 g ai/ha, scale 0 to 100 (0 no effect, 100 complete control).
Setting [18] is: 16 g ai/ha, scale 0 to 100 (0 no effect, 100 complete control).
The mark [19] stands for this setting: Preemergence, 125 g ai/ha, scale 0 to 100.
[20] abbreviates: Preemergence, 250 g ai/ha, scale 0 to 100.

Turning to `Cc1nn(-c2ccc(C(F)(F)F)c(F)c2)nc1Cc1ccnc(C(F)(F)F)c1` [Compound 162], the “Plant response rating, Crabgrass, Brazil” value in assay [1] (setting [6]) came out at 15; in assay [1] (setting [7]) it was 15; in assay [1] (setting [8]) it was 15; in assay [1] (setting [9]) it was 20; in assay [1] (setting [10]), 30; in assay [1] (setting [11]) it was 0. Besides, the “Plant response rating, Crabgrass, Brazil” value in assay [1] (setting [12]), in assay [1] (setting [13]), in assay [1] (setting [14]) and in assay [1] (setting [15]) was 100 throughout. In addition, the “Plant response rating, Beggarticks” value is given as 15 in assay [2] (setting [6]); 20 in assay [2] (setting [7]); 25 in assay [2] (setting [8]); 25 in assay [2] (setting [9]); 30 in assay [2] (setting [10]); 0 in assay [2] (setting [11]). Also, the “Plant response rating, Beggarticks” value in assay [2] (setting [12]), in assay [2] (setting [13]), in assay [2] (setting [14]) and in assay [2] (setting [15]) was 0 each time. The “Plant response rating, Arrowleaf Sida” value was 10 in assay [3] (setting [6]); 25 in assay [3] (setting [7]); 30 in assay [3] (setting [8]); 35 in assay [3] (setting [9]); 60 in assay [3] (setting [10]); 0 in assay [3] (setting [11]). Further, the “Plant response rating, Arrowleaf Sida” value in assay [3] (setting [12]), in assay [3] (setting [13]), in assay [3] (setting [14]) and in assay [3] (setting [15]) was 0 in each case. In addition, the “Plant response rating, Barnyardgrass” value in assay [4] (setting [16]) was 20; in assay [4] (setting [17]), 65; in assay [4] (250 g ai/ha, scale 0 to 100), 95. Besides, the “Plant response rating, Foxtail, Giant” value in assay [5] (4 g ai/ha, scale 0 to 100, 0 no effect, 100 complete control) is 0; in assay [5] (8 g ai/ha, scale 0 to 100, 0 no effect, 100 complete control) it was 20; in assay [5] (setting [18]), 70; in assay [5] (setting [16]), 100; in assay [5] (62 g ai/ha, scale 0 to 100), 100.
On to `CCc1nn(-c2ccc(F)cc2)nc1Oc1ccnc(C(F)(F)F)c1` [Compound 166], for which the “Plant response rating, Barnyardgrass” value worked out at 10 in assay [4] (setting [16]); 25 in assay [4] (setting [17]); 60 in assay [4] (250 g ai/ha, scale 0 to 100).
In the same order, the values of `CCCc1nn(-c2ccc(C(F)(F)F)c(F)c2)nc1Oc1ccnc(C(F)(F)F)c1` [Compound 185] are 30, 35 and 80.
Take `CCCc1nn(-c2ccc(F)cc2)nc1Cc1ccnc(C(F)(F)F)c1` [Compound 153]: the “Plant response rating, Crabgrass, Brazil” value came out at 98 in assay [1] (setting [13]); 100 in assay [1] (setting [14]); 100 in assay [1] (setting [15]); 100 in assay [1] (setting [19]); 100 in assay [1] (setting [20]). In addition, the “Plant response rating, Beggarticks” value is recorded as 0 in assay [2] (setting [13]), 25 in assay [2] (setting [14]), 35 in assay [2] (setting [15]) and 65 in assay [2] (setting [19]). Further, the “Plant response rating, Arrowleaf Sida” value in assay [3] (setting [13]) is recorded as 5; in assay [3] (setting [14]), 5; in assay [3] (setting [15]), 25; in assay [3] (setting [19]), 25; in assay [3] (setting [20]) it was 65. Moreover, the “Plant response rating, Barnyardgrass” value in assay [4] (setting [16]) is recorded as 20; in assay [4] (setting [17]), 35; in assay [4] (250 g ai/ha, scale 0 to 100) it was 75. Besides, the “Plant response rating, Foxtail, Giant” value is listed as 40 in assay [5] (setting [18]); 85 in assay [5] (setting [16]); 100 in assay [5] (62 g ai/ha, scale 0 to 100); 100 in assay [5] (125 g ai/ha, scale 0 to 100); 100 in assay [5] (250 g ai/ha, scale 0 to 100).
